Source: patent US20230116972A1, “CD38 MODULATORS AND METHODS OF USE THEREOF” (Cytokinetics, Inc., priority 2021, published 2023)
pIC50: −log10 of the molar value.

Legend:
mouse CD38 = target: T1, mouse CD38 (Mus musculus, UniProt P56528); test: mouse recombinant CD38 enzyme assay (hydrolysis of NAD+); format: biochemical; conditions: read-out: mCD38 BioChem IC50
T1 sequence (P56528 1-304): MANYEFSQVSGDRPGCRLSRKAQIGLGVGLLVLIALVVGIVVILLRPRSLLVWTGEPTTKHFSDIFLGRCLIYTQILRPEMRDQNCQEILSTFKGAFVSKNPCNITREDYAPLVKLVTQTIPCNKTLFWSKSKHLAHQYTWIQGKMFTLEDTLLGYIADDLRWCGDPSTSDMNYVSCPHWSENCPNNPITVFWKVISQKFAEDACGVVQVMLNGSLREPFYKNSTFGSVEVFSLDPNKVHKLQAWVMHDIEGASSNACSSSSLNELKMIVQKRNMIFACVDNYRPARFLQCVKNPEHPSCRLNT
Summary of the method: (§1)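 Inhibitors were titrated against purified CD38 hydrolysing NAD+ for 60 min at ambient temperature. Unconsumed substrate was quantified enzymatically via NADH-coupled resazurin reduction and fluorescence.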

human CD38 = target: T2, human CD38 (Homo sapiens, UniProt P28907); test: human recombinant CD38 enzyme assay (hydrolysis of NAD+); format: biochemical; conditions: human recombinant CD38, 0.4 nM enzyme, 62.5 μM NAD+; read-out: hCD38 BioChem IC50
T2 sequence (P28907 1-300): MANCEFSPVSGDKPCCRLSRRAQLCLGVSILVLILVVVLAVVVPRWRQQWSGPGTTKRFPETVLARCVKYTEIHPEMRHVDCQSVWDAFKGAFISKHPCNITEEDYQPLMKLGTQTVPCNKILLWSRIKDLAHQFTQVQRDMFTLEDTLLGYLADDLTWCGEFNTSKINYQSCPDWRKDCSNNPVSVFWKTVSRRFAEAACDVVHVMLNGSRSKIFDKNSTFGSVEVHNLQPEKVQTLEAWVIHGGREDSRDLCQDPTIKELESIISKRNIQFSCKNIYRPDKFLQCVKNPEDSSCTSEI
Summary of the method: as §1

[1] = target: T3, endogenous CD38 in HL60 cells (Homo sapiens, UniProt P28907); test: cellular CD38 assay in HL60 cells (cellular NAD levels); format: cell-based; conditions: all-trans retinoic acid, 24 hours, read-out: hCD38 HL60 ATRA NAD Cell Diaphorase IC50
T3 construct: endogenous in cells; host or cells: HL60 (leukemic cells, treated with all-trans retinoic acid)
T3 sequence (P28907 1-300): T2 sequence (P28907 1-300)
Summary of the method: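 HL60 cells (20000/well) were treated with compound in DMSO for 24 h. Cellular NAD was then measured by an enzymatic cycling mix (alcohol dehydrogenase, diaphorase, 40 uM resazurin, 10 uM FMN, 3% ethanol, Triton X-100, pH 8.4).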

| Structure (SMILES) | pIC50 (mouse CD38) | pIC50 (human CD38) | pIC50 [1] |
| --- | --- | --- | --- |
| COc1cc(-c2cncn2C)nc(C(=O)N[C@H]2CC[C@H](OC)CC2)n1 [Compound 192, 4-Methoxy-N-((1r,4r)-4-methoxycyclohexyl)-6-(1-methyl-1H-imidazol-5-yl)pyrimidine-2-carboxamide] | 8.26 | 7.34 | 5.42 |
| CO[C@H]1CC[C@H](NC(=O)c2cc(C3CCOCC3)nc(-n3ccnc3)n2)CC1 [Compound 193, 2-(1H-imidazol-1-yl)-N-((1r,4r)-4-methoxycyclohexyl)-6-(tetrahydro-2H-pyran-4-yl)pyrimidine-4-carboxamide] | 7.40 | 6.88 | 4.95 |
| O=C(NC1CCC(F)(F)CC1)c1cc(C2CCOCC2)nc(-n2ccnc2)n1 [Compound 194, N-(4,4-difluorocyclohexyl)-2-(1H-imidazol-1-yl)-6-(tetrahydro-2H-pyran-4-yl)pyrimidine-4-carboxamide] | 7.20 | 6.95 | 5.15 |
| O=C(Nc1ccc(C(F)F)nc1)c1cc(C2CCOCC2)nc(-n2ccnc2)n1 [Compound 195, N-(6-(difluoromethyl)pyridin-3-yl)-2-(1H-imidazol-1-yl)-6-(tetrahydro-2H-pyran-4-yl)pyrimidine-4-carboxamide] | 8.00 | 7.84 | 5.80 |
| O=C(Nc1ccc(C(F)(F)F)nc1)c1cc(C2CCOCC2)nc(-n2ccnc2)n1 [Compound 196, 2-(1H-imidazol-1-yl)-6-(tetrahydro-2H-pyran-4-yl)-N-(6-(trifluoromethyl)pyridin-3-yl)pyrimidine-4-carboxamide] | 7.71 | 7.60 | 5.50 |
| Cn1cncc1-c1nc(C(=O)Nc2ccc(C(F)F)nc2)cc(C2CCOCC2)n1 [Compound 197, N-(6-(difluoromethyl)pyridin-3-yl)-2-(1-methyl-1H-imidazol-5-yl)-6-(tetrahydro-2H-pyran-4-yl)pyrimidine-4-carboxamide] | 9.00 | 8.35 | 6.15 |
| Cn1cncc1-c1nc(C(=O)Nc2ccc(C(F)(F)F)nc2)cc(C2CCOCC2)n1 [Compound 198, 2-(1-methyl-1H-imidazol-5-yl)-6-(tetrahydro-2H-pyran-4-yl)-N-(6-(trifluoromethyl)pyridin-3-yl)pyrimidine-4-carboxamide] | 9.00 | 8.42 | 5.95 |
| Cn1cncc1-c1nc(C(=O)NC2CCC(F)(F)CC2)cc(C2CCOCC2)n1 [Compound 200, N-(4,4-difluorocyclohexyl)-2-(1-methyl-1H-imidazol-5-yl)-6-(tetrahydro-2H-pyran-4-yl)pyrimidine-4-carboxamide] | 8.72 | 8.03 | 5.64 |
| COc1cc(-c2cncn2C)nc(C(=O)Nc2ccc(C(F)F)nc2)n1 [Compound 201, N-(6-(difluoromethyl)pyridin-3-yl)-4-methoxy-6-(1-methyl-1H-imidazol-5-yl)pyrimidine-2-carboxamide] | 8.89 | 8.59 | 6.50 |
| Cc1cc(-c2cncn2C)nc(C(=O)Nc2ccc(C(F)F)nc2)n1 [Compound 202, N-(6-(Difluoromethyl)pyridin-3-yl)-4-methyl-6-(1-methyl-1H-imidazol-5-yl)pyrimidine-2-carboxamide] | 8.96 | 8.55 | 6.64 |
| CO[C@H]1CC[C@H](NC(=O)c2nc(-c3cncn3C)cc(C3CC3)n2)CC1 [Compound 203, 4-cyclopropyl-N-((1r,4r)-4-methoxycyclohexyl)-6-(1-methyl-1H-imidazol-5-yl)pyrimidine-2-carboxamide] | 7.92 | 6.79 | 5.10 |
| CO[C@H]1CC[C@H](NC(=O)c2nc(C3CC3)cc(-n3ccnc3)n2)CC1 [Compound 204, 4-cyclopropyl-6-(1H-imidazol-1-yl)-N-((1r,4r)-4-methoxycyclohexyl)pyrimidine-2-carboxamide] | 8.06 | 6.91 | 5.07 |
| O=C(Nc1ccc(C(F)F)nc1)c1nc(C2CC2)cc(-n2ccnc2)n1 [Compound 205, 4-cyclopropyl-N-(6-(difluoromethyl)pyridin-3-yl)-6-(1H-imidazol-1-yl)pyrimidine-2-carboxamide] | 8.80 | 8.40 | 6.39 |
| Cn1cncc1-c1cc(C2CC2)nc(C(=O)Nc2ccc(C(F)F)nc2)n1 [Compound 206, 4-cyclopropyl-N-(6-(difluoromethyl)pyridin-3-yl)-6-(1-methyl-1H-imidazol-5-yl)pyrimidine-2-carboxamide] | 8.77 | 8.41 | 6.24 |
| CO[C@H]1CC[C@H](NC(=O)c2nc(C)cc(-n3ccnc3)n2)CC1 [Compound 207, 4-(1H-imidazol-1-yl)-N-((1r,4r)-4-methoxycyclohexyl)-6-methylpyrimidine-2-carboxamide] | 8.14 | 7.61 | 5.43 |
| COCCO[C@H]1CC[C@H](NC(=O)c2nccc(-c3cncn3C)n2)CC1 [Compound 209, N-((1r,4r)-4-(2-methoxyethoxy)cyclohexyl)-4-(1-methyl-1H-imidazol-5-yl)pyrimidine-2-carboxamide] | 7.46 | 6.98 | 5.07 |
| COc1cc(-n2ccnc2)nc(C(=O)Nc2ccc(C(F)F)nc2)n1 [Compound 210, N-(6-(difluoromethyl)pyridin-3-yl)-4-(1H-imidazol-1-yl)-6-methoxypyrimidine-2-carboxamide] | 8.92 | 8.80 | 6.52 |
| O=C(N[C@H]1C[C@H](c2ccccc2)C1)c1nccc(-n2ccnc2)n1 [Compound 211, 4-(1H-imidazol-1-yl)-N-((1r,3r)-3-phenylcyclobutyl)pyrimidine-2-carboxamide] | 7.53 | 7.34 | 5.70 |
| Cn1cncc1-c1ccnc(C(=O)N[C@H]2C[C@H](c3ccccc3)C2)n1 [Compound 213, 4-(1-methyl-1H-imidazol-5-yl)-N-((1r,3r)-3-phenylcyclobutyl)pyrimidine-2-carboxamide] | 8.04 | 7.82 | 5.83 |
| Cn1cncc1-c1ccnc(C(=O)N[C@H]2C[C@@H](c3ccccc3)C2)n1 [Compound 214, 4-(1-methyl-1H-imidazol-5-yl)-N-((1s,3s)-3-phenylcyclobutyl)pyrimidine-2-carboxamide] | 7.28 | 6.49 | 5.01 |
| Cc1cc(-n2ccnc2)nc(C(=O)Nc2ccc(C(F)F)nc2)n1 [Compound 215, N-(6-(difluoromethyl)pyridin-3-yl)-4-(1H-imidazol-1-yl)-6-methylpyrimidine-2-carboxamide] | 8.80 | 8.70 | 6.67 |
| O=C(Nc1ccc(C(F)F)nc1)c1nc(O)cc(-n2ccnc2)n1 [Compound 216, N-(6-(difluoromethyl)pyridin-3-yl)-4-hydroxy-6-(1H-imidazol-1-yl)pyrimidine-2-carboxamide] | 7.31 | 7.18 | 5.03 |
| COc1ccc([C@H]2C[C@H](NC(=O)c3nccc(-n4ccnc4)n3)C2)cc1 [Compound 217, 4-(1H-imidazol-1-yl)-N-((1r,3r)-3-(4-methoxyphenyl)cyclobutyl)pyrimidine-2-carboxamide] | 7.71 | 7.44 | 5.71 |
| COc1ccc([C@H]2C[C@H](NC(=O)c3nccc(-c4cncn4C)n3)C2)cc1 [Compound 218, N-((1r,3r)-3-(4-methoxyphenyl)cyclobutyl)-4-(1-methyl-1H-imidazol-5-yl)pyrimidine-2-carboxamide] | 7.94 | 7.60 | 5.65 |
| O=C(N[C@H]1C[C@H](Oc2ccccc2)C1)c1nccc(-n2ccnc2)n1 [Compound 219, 4-(1H-imidazol-1-yl)-N-((1r,3r)-3-phenoxycyclobutyl)pyrimidine-2-carboxamide] | 7.00 | 6.44 | 4.97 |
| Cn1cncc1-c1ccnc(C(=O)N[C@H]2C[C@H](Oc3ccccc3)C2)n1 [Compound 220, 4-(1-methyl-1H-imidazol-5-yl)-N-((1r,3r)-3-phenoxycyclobutyl)pyrimidine-2-carboxamide] | 7.28 | 6.84 | 5.31 |
| COc1cc(C(=O)Nc2ccc(C(F)(F)F)nc2)nc(-n2ccnc2)c1 [Compound 221, 6-(1H-imidazol-1-yl)-4-methoxy-N-(6-(trifluoromethyl)pyridin-3-yl)picolinamide] | 8.66 | 8.44 | 5.95 |
